Data as given in publication PMC5224920, “Assessing the mechanism and therapeutic potential of modulators of the human Mediator complex-associated protein kinases” (eLife, 2016).

Tested on: 12 single or co-culture in vitro tissue models of primary cells
Assay: Culture/co-culture cell model panel, extracellular biomarkers (DiscoveRx); on CCL2/MCP-1: reference of the scale not given here; on CD141/Thrombomodulin: reference of the scale not given here; on CD142/Tissue Factor: reference of the scale not given here; on CXCL8/IL-8: reference of the scale not given here; on CXCL9/MIG: reference of the scale not given here; on M-CSF: reference of the scale not given here; on Proliferation: reference of the scale not given here; on SRB: reference of the scale not given here
Assay type: cell-based, human

What does the source list for `Cc1n[nH]c2ncc(C(=O)N3CCC[C@H]3c3ccc(Cl)cc3)cc12` [CMPD4]?
CCL2/MCP-1 (3C, 1.00E4 nM): -0.095; CD54/ICAM-1 (3C, 1.00E4 nM): -0.015; CD62E/E-Selectin (3C, 1.00E4 nM): 0.054; CD87/uPAR (3C, 1.00E4 nM): -0.432; CD106/VCAM-1 (3C, 1.00E4 nM): 0.073; CD141/Thrombomodulin (3C, 1.00E4 nM): 0.088; CD142/Tissue Factor (3C, 1.00E4 nM): 0.112; CXCL8/IL-8 (3C, 1.00E4 nM): -0.381; CXCL9/MIG (3C, 1.00E4 nM): -0.030; HLA-DR (3C, 1.00E4 nM): -0.292; Proliferation (3C, 1.00E4 nM): -0.144; SRB (3C, 1.00E4 nM): -0.077; CCL2/MCP-1 (3C, 1.11E3 nM): -0.139; CD54/ICAM-1 (3C, 1.11E3 nM): -0.012; CD62E/E-Selectin (3C, 1.11E3 nM): 0.043; CD87/uPAR (3C, 1.11E3 nM): -0.475; CD106/VCAM-1 (3C, 1.11E3 nM): 0.074; CD141/Thrombomodulin (3C, 1.11E3 nM): 0.143; CD142/Tissue Factor (3C, 1.11E3 nM): 0.111; CXCL8/IL-8 (3C, 1.11E3 nM): -0.399; CXCL9/MIG (3C, 1.11E3 nM): -0.035; HLA-DR (3C, 1.11E3 nM): -0.213; Proliferation (3C, 1.11E3 nM): -0.067; SRB (3C, 1.11E3 nM): -0.088; CCL2/MCP-1 (3C, 1.23E2 nM): -0.155; CD54/ICAM-1 (3C, 1.23E2 nM): -0.013; CD62E/E-Selectin (3C, 1.23E2 nM): 0.033; CD87/uPAR (3C, 1.23E2 nM): -0.463; CD106/VCAM-1 (3C, 1.23E2 nM): 0.092; CD141/Thrombomodulin (3C, 1.23E2 nM): 0.134; CD142/Tissue Factor (3C, 1.23E2 nM): 0.145; CXCL8/IL-8 (3C, 1.23E2 nM): -0.289; CXCL9/MIG (3C, 1.23E2 nM): -0.028; HLA-DR (3C, 1.23E2 nM): -0.216; Proliferation (3C, 1.23E2 nM): -0.036; SRB (3C, 1.23E2 nM): -0.101; CCL2/MCP-1 (3C, 1.37E1 nM): -0.054; CD54/ICAM-1 (3C, 1.37E1 nM): -0.029; CD62E/E-Selectin (3C, 1.37E1 nM): 0.033; CD87/uPAR (3C, 1.37E1 nM): -0.383; CD106/VCAM-1 (3C, 1.37E1 nM): 0.060; CD141/Thrombomodulin (3C, 1.37E1 nM): 0.107; CD142/Tissue Factor (3C, 1.37E1 nM): 0.109; CXCL8/IL-8 (3C, 1.37E1 nM): -0.180; CXCL9/MIG (3C, 1.37E1 nM): -0.010; HLA-DR (3C, 1.37E1 nM): -0.145; Proliferation (3C, 1.37E1 nM): -0.003; SRB (3C, 1.37E1 nM): -0.076; CCL2/MCP-1 (3C, 3.33E3 nM): -0.119; CD54/ICAM-1 (3C, 3.33E3 nM): -0.027; CD62E/E-Selectin (3C, 3.33E3 nM): 0.034; CD87/uPAR (3C, 3.33E3 nM): -0.471; CD106/VCAM-1 (3C, 3.33E3 nM): 0.069; CD141/Thrombomodulin (3C, 3.33E3 nM): 0.129; CD142/Tissue Factor (3C, 3.33E3 nM): 0.128; CXCL8/IL-8 (3C, 3.33E3 nM): -0.412; CXCL9/MIG (3C, 3.33E3 nM): -0.032; HLA-DR (3C, 3.33E3 nM): -0.242; Proliferation (3C, 3.33E3 nM): -0.090; SRB (3C, 3.33E3 nM): -0.073; CCL2/MCP-1 (3C, 3.70E2 nM): -0.153; CD54/ICAM-1 (3C, 3.70E2 nM): -0.078; CD62E/E-Selectin (3C, 3.70E2 nM): 0.052; CD87/uPAR (3C, 3.70E2 nM): -0.455; CD106/VCAM-1 (3C, 3.70E2 nM): 0.094; CD141/Thrombomodulin (3C, 3.70E2 nM): 0.139; CD142/Tissue Factor (3C, 3.70E2 nM): 0.142; CXCL8/IL-8 (3C, 3.70E2 nM): -0.363; CXCL9/MIG (3C, 3.70E2 nM): -0.028; HLA-DR (3C, 3.70E2 nM): -0.210; Proliferation (3C, 3.70E2 nM): -0.026; SRB (3C, 3.70E2 nM): -0.097; CCL2/MCP-1 (3C, 4.12E1 nM): -0.076; CD54/ICAM-1 (3C, 4.12E1 nM): -0.033; CD62E/E-Selectin (3C, 4.12E1 nM): 0.032; CD87/uPAR (3C, 4.12E1 nM): -0.415; CD106/VCAM-1 (3C, 4.12E1 nM): 0.093; CD141/Thrombomodulin (3C, 4.12E1 nM): 0.127; CD142/Tissue Factor (3C, 4.12E1 nM): 0.136; CXCL8/IL-8 (3C, 4.12E1 nM): -0.222; CXCL9/MIG (3C, 4.12E1 nM): -0.007; HLA-DR (3C, 4.12E1 nM): -0.208; Proliferation (3C, 4.12E1 nM): -0.018; SRB (3C, 4.12E1 nM): -0.080; CCL2/MCP-1 (3C, 4.57E0 nM): 0.026; CD54/ICAM-1 (3C, 4.57E0 nM): -0.005; CD62E/E-Selectin (3C, 4.57E0 nM): 0.022; CD87/uPAR (3C, 4.57E0 nM): -0.265; CD106/VCAM-1 (3C, 4.57E0 nM): 0.039; CD141/Thrombomodulin (3C, 4.57E0 nM): 0.096; CD142/Tissue Factor (3C, 4.57E0 nM): 0.092; CXCL8/IL-8 (3C, 4.57E0 nM): -0.109; CXCL9/MIG (3C, 4.57E0 nM): -0.014; HLA-DR (3C, 4.57E0 nM): -0.077; Proliferation (3C, 4.57E0 nM): -0.017; SRB (3C, 4.57E0 nM): -0.052; CCL2/MCP-1 (/HDF3CT, 1.00E4 nM): -0.123; CD54/ICAM-1 (/HDF3CT, 1.00E4 nM): -0.074; CD106/VCAM-1 (/HDF3CT, 1.00E4 nM): 0.00544; CXCL8/IL-8 (/HDF3CT, 1.00E4 nM): -0.159; CXCL9/MIG (/HDF3CT, 1.00E4 nM): -0.043; CXCL10/IP-10 (/HDF3CT, 1.00E4 nM): -0.008; Collagen I (/HDF3CT, 1.00E4 nM): -0.050; M-CSF (/HDF3CT, 1.00E4 nM): -0.035; MMP-1 (/HDF3CT, 1.00E4 nM): -0.057; PAI-I (/HDF3CT, 1.00E4 nM): -0.206; SRB (/HDF3CT, 1.00E4 nM): -0.005; TIMP-2 (/HDF3CT, 1.00E4 nM): 0.00643; CCL2/MCP-1 (/HDF3CT, 1.11E3 nM): -0.116; CD54/ICAM-1 (/HDF3CT, 1.11E3 nM): -0.059; CD106/VCAM-1 (/HDF3CT, 1.11E3 nM): 0.008; CXCL8/IL-8 (/HDF3CT, 1.11E3 nM): -0.199; CXCL9/MIG (/HDF3CT, 1.11E3 nM): -0.051; CXCL10/IP-10 (/HDF3CT, 1.11E3 nM): 0.00172; Collagen I (/HDF3CT, 1.11E3 nM): -0.048; M-CSF (/HDF3CT, 1.11E3 nM): -0.052; MMP-1 (/HDF3CT, 1.11E3 nM): -0.043; PAI-I (/HDF3CT, 1.11E3 nM): -0.122; SRB (/HDF3CT, 1.11E3 nM): 0.010; TIMP-2 (/HDF3CT, 1.11E3 nM): 0.028; CCL2/MCP-1 (/HDF3CT, 1.23E2 nM): -0.004; CD54/ICAM-1 (/HDF3CT, 1.23E2 nM): -0.048; CD106/VCAM-1 (/HDF3CT, 1.23E2 nM): 0.017; CXCL8/IL-8 (/HDF3CT, 1.23E2 nM): -0.167; CXCL9/MIG (/HDF3CT, 1.23E2 nM): -0.040; CXCL10/IP-10 (/HDF3CT, 1.23E2 nM): 0.011; Collagen I (/HDF3CT, 1.23E2 nM): -0.027; M-CSF (/HDF3CT, 1.23E2 nM): -0.051; MMP-1 (/HDF3CT, 1.23E2 nM): 0.00166; PAI-I (/HDF3CT, 1.23E2 nM): -0.00646; SRB (/HDF3CT, 1.23E2 nM): 0.00373; TIMP-2 (/HDF3CT, 1.23E2 nM): 0.061; CCL2/MCP-1 (/HDF3CT, 1.37E1 nM): 0.037; CD54/ICAM-1 (/HDF3CT, 1.37E1 nM): -0.040; CD106/VCAM-1 (/HDF3CT, 1.37E1 nM): 0.019; CXCL8/IL-8 (/HDF3CT, 1.37E1 nM): -0.056; CXCL9/MIG (/HDF3CT, 1.37E1 nM): 0.00152; CXCL10/IP-10 (/HDF3CT, 1.37E1 nM): 0.022; Collagen I (/HDF3CT, 1.37E1 nM): -0.019; M-CSF (/HDF3CT, 1.37E1 nM): -0.071; MMP-1 (/HDF3CT, 1.37E1 nM): 0.083; PAI-I (/HDF3CT, 1.37E1 nM): 0.023; SRB (/HDF3CT, 1.37E1 nM): 0.004; TIMP-2 (/HDF3CT, 1.37E1 nM): 0.069; CCL2/MCP-1 (/HDF3CT, 3.33E3 nM): -0.101; CD54/ICAM-1 (/HDF3CT, 3.33E3 nM): -0.068; CD106/VCAM-1 (/HDF3CT, 3.33E3 nM): 0.005; CXCL8/IL-8 (/HDF3CT, 3.33E3 nM): -0.189; CXCL9/MIG (/HDF3CT, 3.33E3 nM): -0.053; CXCL10/IP-10 (/HDF3CT, 3.33E3 nM): 0.002; Collagen I (/HDF3CT, 3.33E3 nM): -0.071; M-CSF (/HDF3CT, 3.33E3 nM): -0.054; MMP-1 (/HDF3CT, 3.33E3 nM): -0.042; PAI-I (/HDF3CT, 3.33E3 nM): -0.184; SRB (/HDF3CT, 3.33E3 nM): 0.008; TIMP-2 (/HDF3CT, 3.33E3 nM): 0.012; CCL2/MCP-1 (/HDF3CT, 3.70E2 nM): -0.041; CD54/ICAM-1 (/HDF3CT, 3.70E2 nM): -0.059; CD106/VCAM-1 (/HDF3CT, 3.70E2 nM): 0.017; CXCL8/IL-8 (/HDF3CT, 3.70E2 nM): -0.180; CXCL9/MIG (/HDF3CT, 3.70E2 nM): -0.046; CXCL10/IP-10 (/HDF3CT, 3.70E2 nM): 0.00747; Collagen I (/HDF3CT, 3.70E2 nM): -0.040
